The record followed here is patent US20060128757A1, “Pyridine derivatives useful as cyclooxygenase inhibitor” (Astellas Pharma Inc., priority 2001, published 2006).

Where two headings read alike, the source gives them in different places.

Data set [1] relates to stomachs (gastric lesions) of rats. Nature of the data set: Gastric ulcerogenic activity in rats. The data set is classed as in vivo, Male Sprague-Dawley rats. To be noted: oral, 5 h before autopsy, rats fasted 24 h. As for the experimental part:
Male Sprague-Dawley rats were used after a 24 h fast. Drugs were orally administered to groups of 10 rats 5 h before autopsy. The stomachs were macroscopically inspected and scored as follows: 0, no evidence of gastric lesions; 1, spotty submucosal hemorrhage or appearance of erosion; 3, widespread adherence of blood and large areas of submucosal hemorrhage or one to four small ulcers; 4, more than four small ulcers or one large ulcer; 5, numerous large ulcers.

Data set [2] addresses T1, COX-I (Homo sapiens, UniProt P23219).
T1 construct: Fresh blood was collected by syringe without anticoagulants from volunteers with consent; endogenous in cells; host or cells: fresh human whole blood from volunteers, left to clot (TXB2 read-out)
Nature of the data set: Whole blood assay for COX-I (TXB2 production). The data set is classed as cell-based.
Protocol: Fresh blood was collected by syringe without anticoagulants from volunteers with consent. The subjects had no apparent inflammatory conditions and had not taken any medication for at least 7 days prior to blood collection. 500 μl aliquots of human whole blood were immediately incubated with 2 μl of either dimethyl sulfoxide vehicle or a test compound at final concentrations for 1 hr at 37° C. to allow the blood to clot. Appropriate treatments (no incubation) were used as blanks. […] The blood was centrifuged at 6000×g for 5 min at 4° C. to obtain serum. A 100 μl aliquot of serum was mixed with 400 μl methanol for protein precipitation. The supernatant was obtained by centrifuging at 6000×g for 5 min at 4° C. and was assayed for TXB2 using an enzyme immunoassay kit according to the manufacturer's procedure. For a test compound, the results were expressed as percent inhibition of thromboxane B2 (TXB2) production relative to control incubations containing dimethyl sulfoxide vehicle. The data were analyzed by that a test compound at the indicated concentrations was changed log value and was applied simple linear regression. IC50 value was calculated by least squares method.

The target in data set [3] is T2, COX-II (Homo sapiens, UniProt P35354).
T2 construct: lipopolysaccharide for 24 hr at 37° C. for induction of COX-II; endogenous in cells; host or cells: heparinized fresh human whole blood from volunteers, LPS-stimulated for 24 hr (PGE2 read-out)
T2 sequence (P35354 18-604): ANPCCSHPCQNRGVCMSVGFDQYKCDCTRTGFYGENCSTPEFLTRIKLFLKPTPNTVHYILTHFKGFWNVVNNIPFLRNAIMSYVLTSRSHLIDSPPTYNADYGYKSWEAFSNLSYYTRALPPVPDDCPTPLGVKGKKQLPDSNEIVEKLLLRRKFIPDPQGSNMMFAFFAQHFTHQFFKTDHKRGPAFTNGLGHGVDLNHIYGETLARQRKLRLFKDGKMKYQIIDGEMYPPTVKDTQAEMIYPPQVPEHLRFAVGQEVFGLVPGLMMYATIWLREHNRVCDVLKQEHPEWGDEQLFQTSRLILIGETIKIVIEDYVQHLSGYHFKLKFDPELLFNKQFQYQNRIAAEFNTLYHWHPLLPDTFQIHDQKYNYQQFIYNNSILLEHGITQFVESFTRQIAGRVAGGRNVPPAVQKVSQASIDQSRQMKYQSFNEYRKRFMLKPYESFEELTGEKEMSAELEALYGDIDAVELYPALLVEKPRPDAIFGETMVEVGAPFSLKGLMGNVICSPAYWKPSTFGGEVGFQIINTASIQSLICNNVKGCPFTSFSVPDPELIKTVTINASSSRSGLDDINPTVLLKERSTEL
The experiment in a line: Whole blood assay for COX-II (LPS-induced PGE2 production). The data set is classed as cell-based.
Protocol: Fresh blood was collected in heparinized tubes by syringe from volunteers with consent. The subjects had no apparent inflammatory conditions and had not taken any medication for at least 7 days prior to blood collection. 500 μl aliquots of human whole blood were incubated with either 2 μl dimethyl sulfoxide vehicle or 2 μl of a test compound at final concentrations for 15 min at 37° C. This was followed by incubation of the blood with 10 μl of 5 mg/ml lipopolysaccharide for 24 hr at 37° C. for induction of COX-II. Appropriate PBS treatments (no LPS) were used as blanks. At the end of the incubation, the blood was centrifuged at 6000×g for 5 min at 4° C. to obtain plasma. A 100 μl aliquot of plasma was mixed with 400 μl methanol for protein precipitation. The supernatant was obtained by centrifuging at 6000×g for 5 min at 4° C. and was assayed for prostagrandin E2 (PGE2) using a radioimmunoassay kit after conversion of PGE2 to its methyl oximate derivative according to the manufacturer's procedure. For a test compound, the results were expressed as percent inhibition of PGE2 production relative to control incubations containing dimethyl sulfoxide vehicle. The data were analyzed by that a test compound at the indicated concentrations was changed log value and was applied simple linear regression. IC50 value was calculated by least squares method.

For data set [4], the system named is Adjuvant Arthritis in Rats. Nature of the data set: Analgesic activity: effect on adjuvant arthritis in rats (Randall-Selitto). The data set is classed as in vivo, Lewis rats. Conditions: ratio of threshold pressure of treated vs non-treated rats.
The subject of data set [5] is Stretching responses in mice. Nature of the data set: Stretching test (acetic acid i.p.). The data set is classed as in vivo, Male ddY mice. Conditions: 10 mg/Kg orally, acetic acid i.p. 1 h after drug. As for the experimental part:
Male ddY mice were used after a 24 h fast. Drugs were orally administered to groups of 10 mice. Mice were injected intraperitoneally (i.p.) with 0.2 ml/10 g of 0.6% acetic acid 1 h after the drug administration and then placed singly in a plastic animal cage. Stretching responses, defined as constriction of the abdomen with stretching of the hind limbs, were counted for 10 min from 3 min after the i.p. injection of acetic acid.

[6] abbreviates: 1 hr at 37° C., read-out: COX-I IC50.
[7] abbreviates: LPS 24 hr, read-out: COX-II IC50.

T1 sequence (P23219 24-599): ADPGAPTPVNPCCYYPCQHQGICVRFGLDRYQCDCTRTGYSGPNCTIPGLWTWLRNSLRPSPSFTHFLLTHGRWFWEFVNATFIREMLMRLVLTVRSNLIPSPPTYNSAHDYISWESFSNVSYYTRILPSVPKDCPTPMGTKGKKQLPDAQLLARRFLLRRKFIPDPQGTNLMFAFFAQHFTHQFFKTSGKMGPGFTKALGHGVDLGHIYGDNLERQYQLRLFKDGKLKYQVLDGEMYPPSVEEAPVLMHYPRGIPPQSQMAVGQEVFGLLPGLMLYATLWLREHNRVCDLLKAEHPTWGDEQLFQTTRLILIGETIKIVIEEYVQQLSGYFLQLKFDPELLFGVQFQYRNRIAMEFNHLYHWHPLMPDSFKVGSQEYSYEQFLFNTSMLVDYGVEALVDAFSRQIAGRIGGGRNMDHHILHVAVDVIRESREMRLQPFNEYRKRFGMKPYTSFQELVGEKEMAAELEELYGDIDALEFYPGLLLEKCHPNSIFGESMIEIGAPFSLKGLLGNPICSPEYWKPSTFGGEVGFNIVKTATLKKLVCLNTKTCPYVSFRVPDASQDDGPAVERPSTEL

On to `O=C(O)Cc1ccccc1Nc1c(Cl)cccc1Cl` [J, Diclofenac], for which the “Gastric ulcerogenic activity (Non-toxic dose)” value in data set [1] is 3.2 mg/kg.
For orientation: IC50 means the midpoint of a concentration-inhibition curve. As to `COc1ccc(-c2cc(C#N)c(Cl)nc2-c2ccc(OC)cc2)cc1` [Example 1-(3), 2-chloro-5-(4-methoxyphenyl)-6-(4-methoxyphenyl) pyridine-3-carbonitrile], the IC50 is < 0.1 µM in data set [2] (setting [6]) and > 1 µM in data set [3] (setting [7]).
`CC(C(=O)O)c1cccc(C(=O)c2ccccc2)c1` (centres unmarked) [G, Ketoprofen]: the “Gastric ulcerogenic activity (Non-toxic dose)” value in data set [1] stood at 3.2 mg/kg.
By melting point is commonly meant the temperature, or range, at which the solid turns liquid. `COc1ccc(-c2cc(C#N)cnc2-c2ccc(OC)cc2)cc1` [Example 4, 5-(4-methoxyphenyl)-6-(4-methoxyphenyl)-pyridine-3-carbonitrile] gave a melting point of 107 to 108 °C. In addition, the “Analgesic activity in adjuvant arthritis -3.2 mg/Kg-” value in data set [4] (3.2 mg/Kg, 2 hr after administration) was 1.57. Further, the “The coefficient of analgesic” value in data set [4] (Dose 3.2 mg/kg, pain threshold 2 hr after administration, ratio of 1.5 = effective dose) was >1.5. Further, the IC50 in data set [2] (setting [6]) is < 0.1 µM. Further, the IC50 in data set [2] (Table 1, read-out: Whole blood assay (IC50: μM) COX-I) came out at 0.017 µM. Further, the IC50 in data set [3] (setting [7]) is > 1 µM. In addition, the half-inhibitory concentration (IC50) in data set [3] (Table 1, read-out: Whole blood assay (IC50: μM) COX-II) is 1.9 µM. The “Inhibiting activity in stretching test” value in data set [5] worked out at 48%. Further, in data set [1], the “Gastric ulcerogenic activity (Non-toxic dose)” value was >100 mg/kg.
Consider `COc1ccc(-c2cc(C#N)c(OC)nc2-c2ccc(OC)cc2)cc1` [Example 6, 2-methoxy-5-(4-methoxyphenyl)-6-(4-methoxyphenyl)-pyridine-3-carbonitrile], for which the concentration for half-maximal inhibition (IC50) in data set [2] (setting [6]) was < 0.1 µM; in data set [3] (setting [7]), > 1 µM.
For the molecule `COc1ccc2c(c1)c(CC(=O)O)c(C)n2C(=O)c1ccc(Cl)cc1` [I, Indomethacin], in data set [1], the “Gastric ulcerogenic activity (Non-toxic dose)” value was found to be 1 mg/kg.
Take `COc1ccc(-c2noc(CC(=O)O)c2-c2ccc(OC)cc2)cc1` [H, Mofezolac]: in data set [1], the “Gastric ulcerogenic activity (Non-toxic dose)” value was determined as 10 mg/kg.
